According to patent US20250040548A1, “Herbicidal compositions comprising saflufenacil” (BASF SF, priority 2023, published 2025):

How the values were obtained:
KCHSC = assay: Post-emergence application in greenhouse trials; assay type: in vivo, Kochia scoparia; settings: growth stage 33, 1% MSO
Protocol: (§1) In the examples below, using the method of S. R. Colby (1967) “Calculating synergistic and antagonistic responses of herbicide combinations”, Weeds 15, p. 22ff., the value E, which is expected if the activity of the individual active compounds is only additive, was calculated.
(§2) [formula] • where • X=percent activity using active herbicide A at an application rate a; • Y=percent activity using active saflufenacil at an application rate b; • E=expected activity (in %) by A+B at application rates a+b.
(§3) If the value found experimentally is higher than the value E calculated according to Colby, a synergistic effect is present.
(§4) The culture containers used were plastic pots containing loamy sand with approximately 3.0% of humus as substrate. The seeds of the test plants were sown separately for each species.
(§5) For the post-emergence treatment, the test plants were grown to a plant height of from 3 to 15 cm, depending on the plant habit, and only then treated with the active compounds which had been suspended or emulsified in water. To this end, the test plants were either sown directly, and grown in the same containers, or they were first grown separately as seedlings and transplanted into the test containers a few days prior to treatment.
(§6) Depending on the species, the plants were kept at 10-25° C. and 20-35° C., respectively.
(§7) The test period extended over 2 to 4 weeks. During this time, the plants were tended and their response to the individual treatments was evaluated.
(§8) Evaluation was carried out using a scale from 0 to 100. 100 means no emergence of the plants, or complete destruction of at least the above-ground parts, and 0 means no damage or normal course of growth. A good herbicidal activity is given at values of at least 70, and very good herbicidal activity is given at values of at least 85.
(§9) Unless indicated otherwise, herbicide A and saflufenacil were formulated (50 g/I) and applied with addition of 1% MSO (methylated seed oil) as adjuvant. In the greenhouse trials, the solvent used was water (200 I/ha).

ECHCG = assay: Post-emergence application in greenhouse trials; assay type: in vivo, Echinocloa crus-galli; settings: A-1 1.56 g ai/ha, growth stage 13, saflufenacil as commercial 342 g/l SC formulation
Protocol: as §1, §2, §3, §4, §5, §6, §7, §8, §9

CHEAL = assay: Post-emergence application in greenhouse trials; assay type: in vivo, Chenopodium album; settings: A-1 3.12 g ai/ha, 21 DAT, growth stage 51, saflufenacil as commercial 342 g/l SC formulation
Protocol: as §1, §2, §3, §4
(§10) For the post-emergence treatment, the test plants were grown to a plant height of from 3 to 15 cm, depending on the plant habit, and only then treated with the active compounds which had been suspended or emulsified in water. To this end, the test plants were either sown directly, and grown in the same containers, or they were first grown separately as seedlings and transplanted into the test containers a few days prior to treatment. […]
(§11) The test period extended over 2 to 4 weeks. During this time, the plants were tended and their response to the individual treatments was evaluated. […]

ELEIN = assay: Post-emergence application in greenhouse trials; assay type: in vivo, Eleusine indica; settings: A-1 3.12 g ai/ha, 21 DAT, growth stage 21, saflufenacil as commercial 342 g/l SC formulation
Protocol: as §1, §2, §3, §4, §10, §11

ERICA [1] = assay: Post-emergence application in greenhouse trials; assay type: in vivo, Erigeron canadensis; settings: 21 DAT, growth stage 31, saflufenacil as commercial 342 g/l SC formulation
Protocol: as §1, §2, §3, §4, §5, §6, §7, §8, §9

BRADC = assay: Post-emergence application in field trials (Examples 2 and 3); assay type: in vivo, Brachiaria decumbens; settings: growth stage 22-23, height 32-38 cm, 21 DAT, 1% Dash ® HC
Protocol: as §1, §2, §3
(§12) On field test sites, natural weed infestation or seeded weeds were treated post-emergence of the weeds.
(§13) For the post emergence treatment, the weedy plants were treated as indicated below. The herbicidal compositions were, together with the adjuvant(s) as indicated, suspended or emulsified in water (200 l/ha unless indicated otherwise) as distribution medium and sprayed with commercial flat fan nozzles.
(§14) In the following experiments, the herbicidal activity for the individual herbicidal compositions (solo and mixture applications) was assessed the indicated days after treatment (DAT). The assessments for the damage on undesired weeds caused by the composition was carried out using a scale from 0 to 100%, compared to the untreated control plants. Here, 0 means no damage and 100 means complete destruction of the plants.
(§15) For the post emergence treatment, the weedy plants were treated as indicated below. The herbicidal compositions were, together with the adjuvant(s) as indicated, suspended or emulsified in water (200 I/ha unless indicated otherwise) as distribution medium and sprayed with commercial flat fan nozzles.

COMBE = assay: as above; assay type: in vivo, Commelina benghalensis; settings: A-1 50 g ai/ha, 21 DAT, growth stage 11-14, height 2-10 cm, 0.5% MSO
Protocol: as §1, §2, §3, §12, §13
In the following experiments, the herbicidal activity for the individual herbicidal compositions (solo and mixture applications) was assessed the indicated days after treatment (DAT). The assessments for the damage on undesired weeds caused by the composition was carried out using a scale from 0 to 100%, compared to the untreated control plants. […]

DIGIN = assay: as above; assay type: in vivo, Digitaria insularis
Protocol: as §1, §2, §3, §12, §13, §14, §15

ERICA [2] = assay: as above; assay type: in vivo, Erigeron canadensis; settings: 21 DAT
Protocol: as §1, §2, §3, §12, §13, §14, §15

ERISS = assay: as above; assay type: in vivo, Erigeron sp.; settings: 14 DAT, height 30-50 cm, 0.5% v/v MSO
Protocol: as §1, §2, §3, §12, §13, §14, §15

[3] = tested on: HORVS* (non-PPOi herbicide tolerant); assay: as above; assay type: in vivo, Hordeum vulgare; settings: 1% v/v MSO
Protocol: as §1, §2, §3, §12, §13, §14, §15

POAAN = assay: as above; assay type: in vivo, Poa annua
Protocol: as §1, §2, §3, §12, §13, §14, §15

SETVI = assay: as above; assay type: in vivo, Setaria viridis
Protocol: as §1, §2, §3, §12, §13, §14, §15

[4] = tested on: ZEAMX* (non-PPOi herbicide tolerant); assay: as above; assay type: in vivo, Zea mays; settings: 21 DAT
Protocol: as §1, §2, §3, §12, §13, §14, §15

CCOC(=O)COc1ccccc1Oc1nc(-n2c(=O)cc(C(F)(F)F)n(C)c2=O)c(F)cc1Cl [A-1, ethyl 2-[2-[[3-chloro-5-fluoro-6-[3-methyl-2,6-dioxo-4-(trifluoromethyl)pyrimidin-1-yl]-2-pyridyl]oxy]phenoxy]acetate]
% Herbicidal activity (KCHSC; A-1 0.2 g ai/ha, 6 DAT): 15%
% Herbicidal activity (KCHSC; A-1 0.2 g ai/ha, 20 DAT): 15%
% Herbicidal activity (KCHSC; A-1 0.3 g ai/ha, 6 DAT): 55%
% Herbicidal activity (KCHSC; A-1 0.4 g ai/ha, 6 DAT): 55%
% Herbicidal activity (KCHSC; A-1 0.4 g ai/ha, 20 DAT): 55%
% Herbicidal activity (KCHSC; A-1 0.9 g ai/ha, 6 DAT): 90%
% Herbicidal activity (KCHSC; A-1 1 g ai/ha, 6 DAT): 95%
% Herbicidal activity (ECHCG; 7 DAT): 70%
% Herbicidal activity (ECHCG; 21 DAT): 55%
% Herbicidal activity (CHEAL): 65%
% Herbicidal activity (ELEIN): 80%
% Herbicidal activity (ERICA [1]; A-1 1.56 g ai/ha): 10%
% Herbicidal activity (ERICA [1]; A-1 3.12 g ai/ha): 10%
% Herbicidal activity (ERICA [1]; A-1 6.25 g ai/ha): 30%
% Herbicidal activity (BRADC; A-1 solo 30 g ai/ha): 75%
% Herbicidal activity (BRADC; A-1 solo 50 g ai/ha): 88%
% Herbicidal activity (COMBE): 94%
% Herbicidal activity (DIGIN; A-1 50 g ai/ha, 7 DAT, height 60-80 cm, field, 0.5% v/v MSO): 70%
% Herbicidal activity (DIGIN; DIGIN, growth stage 65, height 40-50 cm, A-1 solo 30 g ai/ha, 21 DAT, 1% v/v MSO): 53%
% Herbicidal activity (ERICA [2]; A-1 6.25 g ai/ha, height 12.5-25 cm, field, 140 l/ha water, 1% MSO + 2.5% ammoniumsulfate): 7%
% Herbicidal activity (ERICA [2]; A-1 12.5 g ai/ha, height 12.5-25 cm, field, 140 l/ha water, 1% MSO + 2.5% ammoniumsulfate): 17%
% Herbicidal activity (ERICA [2]; ERICA, height 5-10 cm, A-1 solo 25 g ai/ha, 1% v/v MSO and 1% AMS (ammonium sulfate)): 60%
% Herbicidal activity (ERISS; A-1 25 g ai/ha): 13%
% Herbicidal activity (ERISS; A-1 50 g ai/ha): 18%
% Herbicidal activity ([3]; A-1 18 g ai/ha, 29 DAT, growth stage 15-24, height 25-45 cm, field, 100 l/ha water): 73%
% Herbicidal activity ([3]; HORVS* (non-PPOi herbicide tolerant), growth stage 15, height 31-43 cm, A-1 solo 12.5 g ai/ha, 16 DAT): 72%
% Herbicidal activity ([3]; HORVS* (non-PPOi herbicide tolerant), growth stage 15, height 31-43 cm, A-1 solo 50 g ai/ha, 16 DAT): 96%
% Herbicidal activity (POAAN; A-1 12.5 g ai/ha, 21 DAT, growth stage 55-65, height 10-15 cm, field, 140 l/ha water, 1% MSO + 2.5% ammoniumsulfate): 33%
% Herbicidal activity (POAAN; POAAN, height 2.5-4 cm, A-1 solo 12.5 g ai/ha, 7 DAT, 1% v/v MSO): 83%
% Herbicidal activity (POAAN; POAAN, height 2.5-4 cm, A-1 solo 25 g ai/ha, 7 DAT, 1% v/v MSO): 88%
% Herbicidal activity (SETVI; A-1 12.5 g ai/ha, 19 DAT, growth stage 13-19, height 2.5-10 cm, field, 1% v/v MSO and 1% w/v ammoniumsulfate): 87%
% Herbicidal activity (SETVI; A-1 25 g ai/ha, 19 DAT, growth stage 13-19, height 2.5-10 cm, field, 1% v/v MSO and 1% w/v ammoniumsulfate): 96%
% Herbicidal activity (SETVI; SETVI, height 50-61 cm, A-1 solo 25 g ai/ha, 42 DAT, 1% v/v MSO and 2.5% AMSOL ®): 57%
% Herbicidal activity ([4]; A-1 12.5 g ai/ha, growth stage 15, 1% v/v MSO and 1% w/v ammoniumsulfate): 40%
% Herbicidal activity ([4]; A-1 25 g ai/ha, growth stage 15, 1% v/v MSO and 1% w/v ammoniumsulfate): 83%
% Herbicidal activity ([4]; A-1 50 g ai/ha, growth stage 18, 0.5% MSO): 92%
